Data on five molecules can be found in ChEMBL document CHEMBL1159261, “New bioactive monotetrahydrofuran Annonaceous acetogenins, annomuricin C and muricatocin C, from the leaves of Annona muricata” (J Nat Prod, 1995).

The test system of one data set is A549. The experiment in a line: Cytotoxicity against human A549 cells after 7 days by MTT assay. Type of data set: functional. The settings on record: A549, 168 h, read-out: ED50 (the source's name).
Data set [1] is described as follows: Toxicity against brine shrimp. The settings on record: artemia, in vivo; read-out: LD50 (the source's name). The format is organism-based.
Another data set deals with HT-29. The experiment in a line: Cytotoxicity against human HT-29 cells after 7 days by MTT assay. The settings on record: HT-29, 168 h, read-out: ED50 (the source's name). Type of data set: functional.
Another data set deals with MCF7. Description: Cytotoxicity against human MCF7 cells after 7 days by MTT assay. Type of data set: functional. The settings on record: MCF7, 168 h, read-out: ED50 (the source's name).

≈ marks a conversion by molar mass, not a printed value.

For `CCCCCCCCCCCC[C@@H](O)[C@H]1CC[C@H]([C@H](O)CCC[C@@H]2OC(C)(C)O[C@@H]2CCCCC[C@@H](O)CC2=C[C@H](C)OC2=O)O1`, the EC50 came out at 0.0698 µg/mL (≈ 0.107 µM) with A549, 1.41 µg/mL (≈ 2.16 µM) with HT-29 and 0.00481 µg/mL (≈ 0.00737 µM) with MCF7. Moreover, the LC50 in data set [1] amounted to 0.235 µg/mL (≈ 0.36 µM).
The like results for `CCCCCCCCCCCC[C@@H](O)[C@H]1CC[C@H]([C@H](O)CC[C@@H]2C[C@@H](CCCCC[C@@H](O)CC3=C[C@H](C)OC3=O)OC(C)(C)O2)O1` were, in that order, 0.00376 µg/mL (≈ 0.00576 µM), 0.261 µg/mL (≈ 0.4 µM), 0.00398 µg/mL (≈ 0.0061 µM) and 0.189 µg/mL (≈ 0.289 µM).
Turning to `CCCCCCCCCCCC[C@@H](O)[C@H]1CC[C@H]([C@H](O)CCC[C@H](O)[C@@H](O)CCCCC[C@@H](O)CC2=C[C@H](C)OC2=O)O1` [ANNOMURICIN C], the EC50 in the data set with A549 is 0.308 µg/mL (≈ 0.503 µM); in the data set with HT-29 it was 1.54 µg/mL (≈ 2.51 µM); in the data set with MCF7, 0.228 µg/mL (≈ 0.372 µM). Moreover, the LC50 in data set [1] amounted to 0.613 µg/mL (≈ 1 µM).
For the molecule `COc1cccc2c1C(=O)c1c(O)c3c(c(O)c1C2=O)C[C@@](O)(C(=O)CO)C[C@@H]3O[C@H]1C[C@H](N)[C@H](O)[C@H](C)O1` [DOXORUBICIN], the EC50 in the data set on HT-29 amounted to 0.0348 µg/mL (≈ 0.064 µM); with MCF7, 0.106 µg/mL (≈ 0.195 µM).
Turning to `CCCCCCCCCCCC[C@@H](O)[C@H]1CC[C@H]([C@H](O)CC[C@@H](O)C[C@H](O)CCCCC[C@@H](O)CC2=C[C@H](C)OC2=O)O1` [MURICATOCIN C], the results for the EC50 with A549, in the data set on HT-29 and in the data set on MCF7 were 0.0909 µg/mL (≈ 0.148 µM), 1.48 µg/mL (≈ 2.41 µM) and 0.0645 µg/mL (≈ 0.105 µM), respectively. In addition, the LC50 in data set [1] was 0.604 µg/mL (≈ 0.985 µM).
